“Also recorded” adds a separate entry of the source.
Key:
[1] = system: RAR-dependent transcription; assay: Single cell microinjection assay, retinoic acid-dependent RARE/LacZ reporter; format: cell-based, rat; settings: for effect on retinoic acid-dependent gene activation by RAR: microinjection into Rat-1 cells
Method: (§1) Insulin-responsive Rat-1 fibroblasts were seeded on acid washed glass coverslips at subconfluent density and grown in MNE/F12 medium supplemented with 10% fetal bovine serum, gentamicin and methotrexate. Prior to the injection, the cells were rendered quiescent by incubation in serum-free medium for 24–36 hr. Plasmids were injected into the nuclei of cells at a final concentration of […]. Peptides were injected at a concentration of 200 mM. Either preimmune IgG of the appropriate species or antibodies directed against p/CIP, NCoA-1 or NCoA-2 were co-injected and allowed the unambiguous identification of the injected cells.
(§2) Microinjections were carried out using an Eppendorf semiautomated microinjection system mounted on an inverted Zeiss microscope. Approximately 1 hr after injection, the cells were stimulated, where indicated, with the appropriate ligand. In the case of rescue experiments, the cells were stimulated with ligand 6 hr after injection, to allow protein expression. After overnight incubation, the cells were fixed, then stained to detect injected IgG and β-galactosidase expression (Rose et al., J. Cell. Biol. 119:1405–1411 (1992), which is incorporated herein by reference; Kamei et al., supra, 1996). Injected cells were identified by staining with tetramethylrhodamine-conjugated donkey anti-rabbit IgG.

[2] = system: STAT-dependent (interferon γ-dependent) transcription; assay: Single cell microinjection assay, interferon γ-dependent GAS/LacZ reporter; format: cell-based, rat; settings: for effect on interferon γ-dependent (STAT) gene activation: microinjection into Rat-1 cells, GAS/LacZ reporter
Method: as §1, §2

liganded RAR and NCoA-1 = target: T1, liganded RAR and NCoA-1 (Homo sapiens, UniProt P10276); assay: In vitro competition assay, GST-RAR interaction with in vitro translated NCoA-1; format: binding; settings: excess peptide; 35S-labeled NCoA interaction domain fragment (aa 635–760); TTNPB 1 μM
T1 construct: GST-RAR (143–462), GST-ER(251–595) and GST-CBP(2058–2170) were generated as described; made in house; NCoA-1 was made by in vitro translation
T1 sequence (P10276 143-462): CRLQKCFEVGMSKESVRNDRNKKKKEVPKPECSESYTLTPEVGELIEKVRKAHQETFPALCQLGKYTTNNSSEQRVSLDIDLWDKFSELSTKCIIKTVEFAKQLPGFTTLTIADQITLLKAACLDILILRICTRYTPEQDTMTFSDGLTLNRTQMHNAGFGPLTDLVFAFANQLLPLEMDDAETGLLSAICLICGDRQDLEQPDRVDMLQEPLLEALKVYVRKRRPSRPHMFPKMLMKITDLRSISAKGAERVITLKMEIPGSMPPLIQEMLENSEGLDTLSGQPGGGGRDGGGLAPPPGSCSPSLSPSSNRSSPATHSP
Method: GST-RAR (143–462), GST-ER(251–595) and GST-CBP(2058–2170) were generated as described (Kamei et al., supra, 1996). 25 ul of GST SEPHAROSE beads containing 10 ug of the GST recombinant proteins were incubated in the presence or absence of the appropriate ligand for 30 min at room temperature, followed by the addition of 1 mg of cell extract and incubated for an additional 1 hr at 4° C. The complexes were then centrifuged, washed three times in NET-N buffer, separated by SDS-PAGE and western blotted with the appropriate antibodies (1 ug/ml). For co-immunoprecipitation assays, 1 mg of cell extract was incubated in the presence of 2 ug of p/CIP or NCoA antibody for 2 hr at 4° C. The immune complexes were precipitated with protein A SEPHAROSE (50% w/v). Protein complexes were separated by SDS-PAGE (Laemmle, Nature 227:680–685 (1970), which is incorporated herein by reference) and western blotted using 1 ug/ml of an anti-CBP/P300 monoclonal antibody (UBI). For in vitro competition assays, the indicated peptides were incubated with in vitro translated NCoA-1 prior to GST interaction with RAR.

[3] = target: T2, estrogen receptor ligand binding domain (yeast two-hybrid bait, liganded) (UniProt P03372 251-595); assay: yeast two-hybrid
T2 construct: Tested with estradiol (10^-6 M); also called liganded estrogen receptor (LBD); ER
T2 sequence (looked up): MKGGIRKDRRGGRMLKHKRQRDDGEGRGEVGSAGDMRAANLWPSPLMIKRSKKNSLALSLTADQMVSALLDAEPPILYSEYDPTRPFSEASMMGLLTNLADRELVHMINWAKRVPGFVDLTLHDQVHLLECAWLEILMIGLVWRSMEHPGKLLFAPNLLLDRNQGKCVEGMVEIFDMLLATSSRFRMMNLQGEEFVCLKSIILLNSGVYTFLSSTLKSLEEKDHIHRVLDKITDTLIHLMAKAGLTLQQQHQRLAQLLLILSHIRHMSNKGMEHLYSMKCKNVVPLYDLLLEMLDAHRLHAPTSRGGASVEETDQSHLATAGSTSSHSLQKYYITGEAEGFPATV
Excerpt: EGY 48 cells were transformed with the lac Z reporter plasmid pSH 18–34 with the appropriate bait and prey vectors and plated out on -Ura-His-Trp medium containing 2% galactose.

[4] = system: SP-1 or CMV dependent transcription; assay: Single cell microinjection assay, control promoters lacking nuclear receptor response elements; format: cell-based; settings: microinjection into Rat-1 cells
Method: as §1, §2

[5] = system: TPA-dependent transcriptional activation; assay: Single cell microinjection assay, TPA-dependent reporter; format: cell-based; settings: microinjection into Rat-1 cells
Method: as §1, §2

[6] = simultaneous retinoic acid and interferon γ

Molecule: CBP N′-P1: synthetic peptide of the N-terminal 22 amino acids of CBP; CBP N′-P1 (aa 1–19) (MAENLLDGPPNPKRAKLSS)
- effect on retinoic acid-dependent gene activation by RAR [1]: without effect
- effect on interferon γ inhibition of RAR-dependent transcription [1, 6]: relieved inhibition; also recorded: fully abolished
- effect on interferon γ-dependent (STAT) gene activation [2]: markedly inhibited
- effect on retinoic acid dependent inhibition of the GAS/LacZ reporter [2, 6]: had no effect

Molecule: LCD4: 19-mer peptide corresponding to NCoA-1 LCD4 (aa 907–926)
- effect on retinoic acid-dependent gene activation by RAR [1]: can block
- effect on retinoic acid-dependent gene activation by RAR ([1]; listed as NCoA-1 LCD4): inhibits
- effect on interferon γ-dependent (STAT) gene activation [2]: does not impair

Molecule: LCD 1: peptide corresponding to LCD 1 of NCoA-1; NCoA-1 LCD1 (aa 631–647) (SQTSHKLVQLLTTTAEQ; UniProt P70365 631-647, looked up, fragment)
- inhibition of interaction between liganded RAR and NCoA-1 in vitro (liganded RAR and NCoA-1): less effective

B1: NCoA-1 (aa 635-760) with LCD2 mutation (amino acids 695 to 698, HRLL->AAAA), yeast two-hybrid prey (other, UniProt P70365 635-760, looked up)
chain: HKLVQLLTTTAEQQLRHADIDTSCKDVLSCTGTSSSASSNPSGGTCPSSHSSLTERHKILAAAAQEGSPSDITTLSVEPEKKDSVPASTAVSVSGQSQGSASIKLELDAAKKKESKDHQLLRYLLD
notes: also called Mutations of the LCD2 motif (RLHRLL->RLAAAA); not shown: B42 fusion partner of prey vector pJG 4-5
- binding result [3]: no binding

B2: p/CIP (aa 947–1084): 137 amino acid region of p/CIP (aa 947–1084) containing the core CBP interaction domain (protein, UniProt O09000 947-1084, looked up, fragment)
chain: VPTLPLRSNRLPGARPSLQQQQQQQQQQQQQQQQQQQQQQQMLQMRTGEIPMGMGVNPYSPAVQSNQPGSWPEGMLSMEQGPHGSQNRPLLRNSLDDLLGPPSNAEGQSDERALLDQLHTFLSNTDATGLEEIDRALG
- effect on retinoic acid-dependent gene activation by RAR [1]: completely inhibited
- effect on retinoic acid-dependent gene activation by RAR ([1]; listed as amino acids 947 to 1084 of p/CIP): inhibits
- effect on SP-1 / CMV control promoters (non-CBP-dependent) [4]: did not block
- effect on interferon γ-dependent (STAT) gene activation [2]: blocked
- effect on TPA-dependent transcriptional activation [5]: blocked

Reference: patent US7211402B2, “Transcription factor coactivator protein, p/CIP” (The Regents of the University of California, priority 1997, dated 2007)
